Broadly, the ED50 is the dose at which the effect has come halfway, by size or by number of responders. One may read the IC50 as the concentration that inhibits the measured activity by half.

Data on 6 compounds can be found in US6251897A, “6-phenyltetrahydro-1,3-oxazin-2-one derivative and pharmaceutical composition containing the same” (Nikken Chemicals Co., LTD, priority 1996, dated 2001).

The test system of assay [1] is antigen-induced bronchospasm in guinea pig. Kind of assay: Inhibitory effect on antigen-induced bronchospasm (Konzett-Roessler, ovalbumin-sensitized). It counts as in vivo, guinea pig (Hartley male). The following applies: Cavia porcellus; intravenous, 10 minutes before antigen (0.2 mg/kg OA i.v.); read-out: Action for suppressing antigen-induced bronchospasms ED50. On the procedure: A Hartley male guinea pig was sensitized by intramuscular administration of […] Ovalbumin (OA) on first day and fourth day, and used after 24th day. A trachial canula was introduced in the guinea pig anesthetized with pentobarbital and artificial ventilation was performed 25 to 29 days after the first sensitization. The overflow of the ventilation was measured by the Konzett-Roessler method while 0.2 mg/kg OA were administered intravenously. The test compound was dissolved in polyethylene glycol 400 and intravenously administered 10 minutes before administration of the antigens.

Assay [2] deals with Type IV PDE. In words: PDE inhibitory activity, type IV isozyme (3H-cAMP hydrolysis). It counts as biochemical. Particulars: partially purified from rat neutrophils, 30° C., 30 minutes. A digest of the protocol: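 Enzyme partially purified from rat neutrophils by ion-exchange chromatography. Reaction in 50 mM Tris-HCl with 5 mM MgCl2, 30 min at 30° C, stopped by boiling; product converted by 5'-nucleotidase and 3H-adenosine counted after ion-exchange separation. IC50 given in M.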

The subject of assay [3] is rat neutrophils. Kind of assay: Inhibition of super oxide anion release from rat neutrophils (A23187-stimulated chemiluminescence). The format is cell-based, rat (Wister). The following applies: Neutrophil, stimulated with 0.3 μM calcium ionophore A23187, read-out: Inhibitory action of super oxide anion release from rat neutrophils IC50. On the procedure:
The release of super oxide anions was measured so as to study the inhibitory effects of the compound on inflammatory leukocytes, that is, neutrophils.
Blood sample was obtained from Wister rats anesthetized with ether. It was superposed on a blood cell separation solution (Polymorphoprep 1.113, made by Naicomet Co. (phonetic)) and the neutrophils were separated by centrifugation. The neutrophils were resuspended in a Hank's balanced salt solution at a concentration of 0.5×10^4 cell/ml. 0.1 mM of Lusigenin and the test substance dissolved in DMSO were added to 2 ml of the cell-suspension. The chemiluminescence generated by stimulation of 0.3 μM calcium ionophore A23187 was measured by a chemiluminescence reader so as to evaluate the release of super oxide anions.

On to `COc1ccc(C2(C)CCNC(=O)O2)cc1OC` (stereo not shown) [Compound No. 5, 6-(3,4-dimethoxyphenyl)-6-methyl-3,4,5,6-tetrahydro-2H-1,3-oxazin-2-one], for which, in assay [1], the ED50 worked out at 0.3 mg/kg. In addition, the results for the IC50 in assay [2] and in assay [3] were 6800 nM and 2400 nM, respectively.

In the case of `COc1ccc(C2CCN(Cc3ccccc3)C(=O)O2)cc1OC` (stereo not shown) [Compound No. 9, 3-benzyl-6-(3 4-dimethoxyphenyl)-3,4,5,6-tetrahydro-2H-1,3-oxazin-2-one], the IC50 turned out to be 22000 nM in assay [2] and 2300 nM in assay [3].

For the compound `COc1ccc(C2CCNC(=O)O2)cc1OC1CCCC1` (stereo not shown) [Compound No. 2, 6-(3-cyclopentyloxy-4-methoxyphenyl)-3,4,5,6-tetrahydro-2H-1,3-oxazin-2-one], the ED50 in assay [1] is 0.23 mg/kg. Also, the IC50 in assay [2] is 1200 nM; in assay [3] it was 550 nM.

For `COc1ccc(C2CCN(Cc3ccc(Br)cc3)C(=O)O2)cc1OC1CCCC1` (stereo not shown) [Compound No. 11, 3-(4-bromobenzyl)-6-(3-cyclopentyloxy-4-methoxyphenyl)-3,4,5,6-tetrahydro-2H-1,3-oxazin-2-one], the ED50 in assay [1] stood at 3.1 mg/kg. Further, the figures for the IC50 in assay [2] and in assay [3] were 1400 nM and 50 nM, respectively.

For `COc1ccc(C2CCNC(=O)O2)cc1OC` (stereo not shown) [Compound No. 1, 6-(3,4-dimethoxyphenyl)-3,4,5,6-tetrahydro-2H-1,3-oxazin-2-one], the IC50 in assay [2] came out at 10000 nM; in assay [3], 8800 nM.

Regarding `COc1ccc(C2CCN(C)C(=O)O2)cc1OC1CCCC1` (stereo not shown) [Compound No. 10, 6-(3-Cyclopentyloxy-4-methoxyphenyl)-3-methyl-3,4,5,6-tetrahydro-2H-1,3-oxazin-2-one], the ED50 in assay [1] was determined as 0.95 mg/kg. Further, the IC50 amounted to 1300 nM in assay [2] and 90 nM in assay [3].
